Consider 27 compounds from US20100016366A1, “Novel Compounds Active as Muscarinic Receptor Antagonists” (priority 2008, published 2010).

In this experiment the target is T1, human muscarinic M3 receptor (Homo sapiens, UniProt P20309).
T1 construct: expressed in transfected cells; host or cells: CHO (CHO-K1) cells
T1 sequence (P20309 whole entry): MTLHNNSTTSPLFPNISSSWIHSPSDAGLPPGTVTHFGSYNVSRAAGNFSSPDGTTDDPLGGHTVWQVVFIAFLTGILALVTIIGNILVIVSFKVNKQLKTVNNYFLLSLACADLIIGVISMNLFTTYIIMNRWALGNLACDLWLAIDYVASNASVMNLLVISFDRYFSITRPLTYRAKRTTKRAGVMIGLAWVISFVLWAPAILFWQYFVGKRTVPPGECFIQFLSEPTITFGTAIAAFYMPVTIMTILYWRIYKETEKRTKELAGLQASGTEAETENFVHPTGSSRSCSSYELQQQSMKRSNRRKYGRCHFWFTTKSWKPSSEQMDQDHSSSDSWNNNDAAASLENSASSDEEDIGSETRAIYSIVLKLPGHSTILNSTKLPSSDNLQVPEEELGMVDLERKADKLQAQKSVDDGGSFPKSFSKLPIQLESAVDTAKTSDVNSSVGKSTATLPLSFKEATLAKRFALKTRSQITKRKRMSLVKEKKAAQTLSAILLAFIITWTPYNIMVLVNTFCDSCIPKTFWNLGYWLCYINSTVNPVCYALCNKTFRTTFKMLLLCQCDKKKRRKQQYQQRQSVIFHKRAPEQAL
Put plainly: hM3 competition binding assay (3H-NMS, CHO cell membranes). The following applies: CHO cell membranes expressing human M3; 3H-NMS at 5×KD, 24 hr at RT; IC50 corrected by Cheng-Prussoff. The method, then:
Binding Affinity Assessment at the Human Recombinant M3 Muscarinic Receptor
Cell Pellets from CHO (Chinese Hamster Ovary) cells recombinantly expressing the human muscarinic M3 receptor were homogenised in 20 mM HEPES (pH7.4) and centrifuged at 48000×g for 20 min at 4° C. The pellet was re-suspended in buffer and the homogenisation and centrifugation steps repeated. The resulting pellet was re-suspended in 1 ml buffer per 1 ml original packed cell volume and the homogenisation step repeated. Protein estimation was carried out on the suspension and 1 ml aliquots of ˜1 mg/ml frozen at −80° C.
hM3 Competition Binding Assay Protocol
Membranes (5 µg/well) were incubated with ^3H-NMS (at a concentration 5×KD) plus/minus test compound for 24 hr at RT (room temperature) in a 1 ml polystyrene 96-well deep well block. The final assay volume was 200 µl, comprising of: 20 µl plus/minus test compound; 20 µl ^3H-NMS (Perkin Elmer NEN 636) and 160 µl membrane solution. Total Binding was defined with 0.1% DMSO; Non-Specific Binding was defined with 1 µM Atropine. Assay buffer was 20 mM Hepes (pH 7.4).
Once all assay components were added, plates were covered and incubated at room temperature for 24 hrs with shaking. The assay was terminated by rapidly filtering through GF/B Unifilter plates pre-soaked with 0.5% polyethylenimine, using a Packard filtermate harvester, the filter plate was then washed with 3×1 ml 4° C. assay buffer. The filter plates were dried at 45° C. for 1 hour. The bottoms of the filter plates were sealed and 50 µl/well of Microscint ‘0’ added, the top of the plates were sealed with a Topseal. Following 90 mins, the plates were read on an NXT Topcount (1 minute read time per well).
The resulting data was expressed as a percentage of the specific binding (Specific binding=Total binding−Non-Specific Binding). % specific binding versus test compound concentration was plotted to determine an IC50 from a sigmoid curve using an in-house data analysis programme. IC50 values corrected to Ki values by applying the Cheng-Prussoff equation: […]
where IC50 is the concentration of unlabelled drug which inhibits by 50% the specific radioligand binding. [L] is the free radioligand concentrations and KD and Ki are the equilibrium dissociation constants of the radioligand and unlabelled drug respectively.
Broadly, the Ki is the dissociation constant of the complex between target and ligand, obtained from inhibition or displacement. For `O=C(Nc1ccccc1-c1ccccc1)OC1CCN(CCCCCCCCCN(Cc2cccc(O)c2Cl)Cc2cccc(O)c2Cl)CC1` [Example 39, Biphenyl-2-yl-carbamic acid 1-{9-[bis-(2-chloro-3-hydroxy-benzyl)-amino]-nonyl}-piperidin-4-yl ester], the affinity corresponds to a Ki of 1.13 nM.

In the case of `CN(CCCCCCCCCN1CCC(OC(=O)Nc2ccccc2-c2ccccc2)CC1)Cc1cccc(F)c1O` [Example 40, Biphenyl-2-yl-carbamic acid 1-{9-[(3-fluoro-2-hydroxy-benzyl)-methyl-amino]-nonyl}-piperidin-4-yl ester], the Ki stood at 0.638 nM. Then `CN(CCCCCCCCCN1CCC(OC(=O)Nc2ccccc2-c2ccccc2)CC1)Cc1cc(Cl)c(Cl)cc1O` [Example 41, Biphenyl-2-yl-carbamic acid 1-{9-[(4,5-dichloro-2-hydroxy-benzyl)-methyl-amino]-nonyl}-piperidin-4-yl ester], with 1.3 nM; and `CN(CCCCCCCCCN1CCC(OC(=O)Nc2ccccc2-c2ccccc2)CC1)Cc1ccc(F)c(O)c1` [Example 42, Biphenyl-2-yl-carbamic acid 1-{9-[(4-fluoro-3-hydroxy-benzyl)-methyl-amino]-nonyl}-piperidin-4-yl ester], with 0.233 nM. For `CN(CCCCCCCCCN1CCC(OC(=O)Nc2ccccc2-c2ccccc2)CC1)Cc1cc(F)c(Cl)cc1O` [Example 43, Biphenyl-2-yl-carbamic acid 1-{9-[(4-chloro-5-fluoro-2-hydroxy-benzyl)-methyl-amino]-nonyl}-piperidin-4-yl ester] the value was 0.295 nM.

`CN(CCCCCCCCCN1CCC(OC(=O)Nc2ccccc2-c2ccccc2)CC1)Cc1ccc(O)c(Cl)c1` [Example 44, Biphenyl-2-yl-carbamic acid 1-{9-[(3-chloro-4-hydroxy-benzyl)-methyl-amino]-nonyl}-piperidin-4-yl ester]: the Ki worked out at 0.212 nM.

Compound `CN(CCCCCCCCCN1CCC(OC(=O)Nc2ccccc2-c2ccccc2)CC1)Cc1ccc(O)c(F)c1` [Example 45, Biphenyl-2-yl-carbamic acid 1-{9-[(3-fluoro-4-hydroxy-benzyl)-methyl-amino]-nonyl}-piperidin-4-yl ester] registered a Ki of 0.212 nM. In other words, the sub-nanomolar range. `CN(CCCCCCCCCN1CCC(OC(=O)Nc2ccccc2-c2ccccc2)CC1)Cc1cc(Cl)ccc1O` [Example 46, Biphenyl-2-yl-carbamic acid 1-{9-[(5-chloro-2-hydroxy-benzyl)-methyl-amino]-nonyl}-piperidin-4-yl ester]: the Ki was found to be 0.755 nM. For `CN(CCCCCCCCCN1CCC(OC(=O)Nc2ccccc2-c2ccccc2)CC1)Cc1cc(F)ccc1O` [Example 47, Biphenyl-2-yl-carbamic acid 1-{9-[(5-fluoro-2-hydroxy-benzyl)-methyl-amino]-nonyl}-piperidin-4-yl ester] the value was 0.529 nM; for `CN(CCCCCCCCCN1CCC(OC(=O)Nc2ccccc2-c2ccccc2)CC1)Cc1cccc(O)c1Cl` [Example 48, Biphenyl-2-yl-carbamic acid 1-{9-[(2-chloro-3-hydroxy-benzyl)-methyl-amino]-nonyl}-piperidin-4-yl ester], 0.182 nM; for `CN(CCCCCCCCCN1CCC(OC(=O)Nc2ccccc2-c2ccccc2)CC1)Cc1cc(F)cc(Cl)c1O` [Example 49, Biphenyl-2-yl-carbamic acid 1-{9-[(3-chloro-5-fluoro-2-hydroxy-benzyl)-methyl-amino]-nonyl}-piperidin-4-yl ester], 0.285 nM. Then `CN(CCCCCCCCCN1CCC(OC(=O)Nc2ccccc2-c2ccccc2)CC1)Cc1cc(Cl)c(O)c(Cl)c1` [Example 50, Biphenyl-2-yl-carbamic acid 1-{9-[(3,5-dichloro-4-hydroxy-benzyl)-methyl-amino]-nonyl}-piperidin-4-yl ester], with 0.22 nM.

Turning to `CN(CCCCCCCCCN1CCC(OC(=O)Nc2ccccc2-c2ccccc2)CC1)Cc1cccc(O)c1F` [Example 51, Biphenyl-2-yl-carbamic acid 1-{9-[(2-fluoro-3-hydroxy-benzyl)-methyl-amino]-nonyl}-piperidin-4-yl ester], the Ki worked out at 0.231 nM. Then `CN(CCCCCCCCCN1CCC(OC(=O)Nc2ccccc2-c2ccccc2)CC1)Cc1cc(Cl)cc(Cl)c1O` [Example 52, Biphenyl-2-yl-carbamic acid 1-{9-[(3,5-dichloro-2-hydroxy-benzyl)-methyl-amino]-nonyl}-piperidin-4-yl ester], with 0.637 nM; and `CN(CCCCCCCCCN1CCC(OC(=O)Nc2ccccc2-c2ccccc2)CC1)Cc1cc(F)c(O)c(F)c1` [Example 53, Biphenyl-2-yl-carbamic acid 1-{9-[(3,5-difluoro-4-hydroxy-benzyl)-methyl-amino]-nonyl}-piperidin-4-yl ester], with 0.345 nM; and `CN(CCCCCCCCCN1CCC(OC(=O)Nc2ccccc2-c2ccccc2)CC1)Cc1ccc(Cl)c(O)c1Cl` [Example 54, Biphenyl-2-yl-carbamic acid 1-{9-[(2,4-dichloro-3-hydroxy-benzyl)-methyl-amino]-nonyl}-piperidin-4-yl ester], with 0.233 nM. On to `CN(CCCCCCCCCN1CCC(OC(=O)Nc2ccccc2-c2ccccc2)CC1)Cc1cc(F)cc(F)c1O` [Example 55, Biphenyl-2-yl-carbamic acid 1-{9-[(3,5-difluoro-2-hydroxy-benzyl)-methyl-amino]-nonyl}-piperidin-4-yl ester], for which the Ki worked out at 0.417 nM. This Ki lies about 1.8-fold higher than the previous one. Then `CN(CCCCCCCCCN1CCC(OC(=O)Nc2ccccc2-c2ccccc2)CC1)C(=O)c1cc(Cl)cc(Cl)c1O` [Example 56, Biphenyl-2-yl-carbamic acid 1-{9-[(3,5-dichloro-2-hydroxy-benzoyl)-methyl-amino]-nonyl}-piperidin-4-yl ester], with 11.3 nM. Consider `CN(CCCCCCCCCN1CCC(OC(=O)Nc2ccccc2-c2ccccc2)CC1)C(=O)c1cccc(Cl)c1O` [Example 57, Biphenyl-2-yl-carbamic acid 1-{9-[(3-chloro-2-hydroxy-benzoyl)-methyl-amino]-nonyl}-piperidin-4-yl ester], for which the Ki is 0.87 nM. This Ki lies about 13-fold lower than the previous one. `CN(CCCCCCCCCN1CCC(OC(=O)Nc2ccccc2-c2ccccc2)CC1)C(=O)c1ccc(F)c(F)c1O` [Example 58, Biphenyl-2-yl-carbamic acid 1-{9-[(3,4-difluoro-2-hydroxy-benzoyl)-methyl-amino]-nonyl}-piperidin-4-yl ester] showed a Ki of 1.83 nM.

In the case of `CN(CCCCCCCCCN1CCC(OC(=O)Nc2ccccc2-c2ccccc2)CC1)C(=O)c1cccc(F)c1O` [Example 59, Biphenyl-2-yl-carbamic acid 1-{9-[(3-fluoro-2-hydroxy-benzoyl)-methyl-amino]-nonyl}-piperidin-4-yl ester], the affinity, expressed as Ki, was 1.27 nM.

For the compound `CN(CCCCCCCCCN1CCC(OC(=O)Nc2ccccc2-c2ccccc2)CC1)C(=O)c1ccc(Cl)cc1O` [Example 60, Biphenyl-2-yl-carbamic acid 1-{9-[(4-chloro-2-hydroxy-benzoyl)-methyl-amino]-nonyl}-piperidin-4-yl ester], the Ki amounted to 3.61 nM. This Ki is about 2.8-fold higher than that of the compound before. Then `CN(CCCCCCCCCN1CCC(OC(=O)Nc2ccccc2-c2ccccc2)CC1)C(=O)c1ccc(F)cc1O` [Example 61, Biphenyl-2-yl-carbamic acid 1-{9-[(4-fluoro-2-hydroxy-benzoyl)-methyl-amino]-nonyl}-piperidin-4-yl ester], with 0.778 nM. Then `CN(CCCCCCCCCN1CCC(OC(=O)Nc2ccccc2-c2ccccc2)CC1)C(=O)c1ccc(Cl)c(O)c1` [Example 62, Biphenyl-2-yl-carbamic acid 1-{9-[(4-chloro-3-hydroxy-benzoyl)-methyl-amino]-nonyl}-piperidin-4-yl ester], with 1.21 nM; and `CN(CCCCCCCCCN1CCC(OC(=O)Nc2ccccc2-c2ccccc2)CC1)C(=O)c1ccc(O)cc1F` [Example 63, Biphenyl-2-yl-carbamic acid 1-{9-[(2-fluoro-4-hydroxy-benzoyl)-methyl-amino]-nonyl}-piperidin-4-yl ester], with 1.12 nM.

For `CN(CCCCCCCCCN1CCC(OC(=O)Nc2ccccc2-c2ccccc2)CC1)C(=O)c1ccc(O)c(F)c1F` [Example 64, Biphenyl-2-yl-carbamic acid 1-{9-[(2,3-difluoro-4-hydroxy-benzoyl)-methyl-amino]-nonyl}-piperidin-4-yl ester], the Ki amounted to 2 nM. For `CN(CCCCCCCCCN1CCC(OC(=O)Nc2ccccc2-c2ccccc2)CC1)C(=O)c1ccc(O)cc1Cl` [Example 65, Biphenyl-2-yl-carbamic acid 1-{9-[(2-chloro-4-hydroxy-benzoyl)-methyl-amino]-nonyl}-piperidin-4-yl ester] the value was 0.628 nM.
